# Reference: patent publication US5646042A, “C-myb targeted ribozymes” (Ribozyme Pharmaceuticals, Inc., priority 1995, dated 1997)
# System: rat smooth muscle cells
# Assay: Serum-stimulated rat smooth muscle cell proliferation (BrdU incorporation)
# Format: cell-based
# Details: for % cell proliferation: no ribozyme; for augmentation of ribozyme inhibition of smooth muscle cell proliferation: 0.2 μM ribozyme 575 12/12 complexed with DMRIE/DOPE at 1:1 charge ratio
# Experimental: The ribozymes that cleaved c-myb RNA described above were assayed for their effect on smooth muscle cell proliferation. Rat vascular smooth muscle cells were isolated and cultured as follows. Aortas from adult Sprague-Dawley rats were dissected, connective tissue was removed under a dissecting microscope, and 1 mm^2 pieces of the vessel were placed, intimal side up, in a Petri dish in Modified Eagle's Medium (MEM) with the following additives: 10% FBS, 2% tryptose phosphate broth, 1% penicillin/streptomycin and 2 mM L-Glutamine. The smooth muscle cells were allowed to migrate and grow to confluence over a 3-4 week period. These primary cells were frozen and subsequent passages were grown at 37° C. in 5% CO2 in Dulbecco's modified Eagle's medium (DMEM), 10% fetal bovine serum (FBS), and the following additives: 2 mM L-Glutamine, 1% penicillin/streptomycin, 1 mM sodium pyruvate, non-essential amino acids (0.1 mM of each amino acid), and 20 mM Hepes pH 7.4. Cells passed four to six times were used in proliferation assays. For the cell proliferation assays, 24-well tissue culture plates were prepared by coating the wells with 0.2% gelatin and washing once with phosphate-buffered saline (PBS). RASMC were inoculated at 1×10^4 cells per well in 1 ml of DMEM plus 10% FBS and additives and incubated for 24 hours. The cells were subconfluent when plated at this density. The cells were serum-starved by removing the medium, washing once with PBS, and incubating 48-72 hours in DMEM containing 0.5% FBS plus additives.
# Serum-starved smooth muscle cells were washed twice with PBS, and the RNA/lipid complex was added. The plates were incubated for 4 hours at 37° C. The medium was then removed and DMEM containing 10% FBS, additives and 10 μM bromodeoxyuridine (BrdU) was added. In some wells, FBS was omitted to determine the baseline of unstimulated proliferation. The plates were incubated at 37° C. for 20-24 hours, fixed with 0.3% H2 O2 in 100% methanol, and stained for BrdU incorporation by standard methods. In this procedure, cells that have proliferated and incorporated BrdU stain brown; non-proliferating cells are counter-staineda light purple. Both BrdU positive and BrdU negative cells were counted under the microscope. 300-600 total cells per well were counted. In the following experiments, the percentage of the total cells that have incorporated BrdU (% cell proliferation) is presented. […] Percent inhibition then is calculated from the % cell proliferation values as follows: % inhibition=100-100((Ribozyme-0% serum)/(Control-0% serum)).
# These include, but are not limited to, ammonium chloride, carbonyl cyanide p-trifluoromethoxy phenyl hydrazone (FCCP), chloroquine, monensin, colchicine, and viral particles (Cotten, M. et al., 1990, Proc. Natl. Acad. Sci. USA, 87, 4033-4037; Cotten, M. et al., 1993, J. Virol., 67, 3777-3785; Cotten, M. et al., 1992, Proc. Natl. Acad. Sci USA, 89, 6094-6098; Cristiano, R. J. et al., 1993, Proc. Natl. Acad. Sci. U S A, 90, 2122-6; Cudel, D. T. et al., 1991, Proc. Nat. Acad. Sci., USA, 88, 8850-8854; Ege, T. et al., 1984, Exp. Cell Res., 155, 9-16; Harris, C. E. et al., 1993, Am. J. Respir. Cell Mol. Biol., 9, 441-7; Seth, P. et al., 1994, J. Virol., 68, 933-40; Zenke, M. et al., 1990, Proc. Natl. Acad. Sci. USA, 87, 3655-3659). […] To determine whether such agents may augment the functional delivery of RNA and ribozymes to smooth muscle cells, the effects of chloroquine on ribozyme inhibition of smooth muscle cell proliferation were assessed. […]
structure (smiles),measurement,setting,value
CCN(CC)CCCC(C)Nc1ccnc2cc(Cl)ccc12 (centres unmarked) [chloroquine],% cell proliferation,"10 μM chloroquine added upon stimulation, stimulation with 10% serum",80.5±1.5%
same,augmentation of ribozyme inhibition of smooth muscle cell proliferation,10 μM chloroquine,two- to three-fold
same,augmentation of ribozyme inhibition of smooth muscle cell proliferation,"10 μM chloroquine, listed as Chloroquine",2- to 3 fold
same,effect of chloroquine on untreated cells (proliferation),"10 μM chloroquine, cells without ribozyme",no effect
same,% cell proliferation,"10 μM chloroquine, unstimulated cells",7±0.5%
